pIC50: −log10 of the molar value. Where only a bound is given, the exact number is not on record here.

This test relates to Colo205 human colon carcinoma cell line. As to the kind of experiment: In vitro tumor cell proliferation assay (MTS, CellTiter 96 Aqueous One Solution). It counts as cell-based. To be noted: COLO 205, Colo205 cells, 72 hours compound exposure, MTS absorbance at 490 nm, read-out: IC50 (concentration of test compound required to inhibit proliferation of 50% of the cells). How it is done:
In Vitro Tumor Cell Proliferation Assay
The adherent H460 human non-small cell lung carcinoma and Colo205 human colon carcinoma cell lines were purchased from the American Type and Culture Collection (ATCC, Manassas, Va.) and maintained in RPMI-1640 growth media supplemented with 10% heat inactivated fetal bovine serum (Gibco, Invitrogen Corp. Grand Island, N.Y.). At 37° C. in a humidified atmosphere of 5% CO2.
The CellTiter 960 Aqueous One Solution kit, MTS, (Promega, Madison, Wis.) was used to measure proliferation of tumor cell lines in vitro. This method monitors the bioreduction of a tetrazolium dye as a measure of cell viability. On Day 0, exponentially growing cells were trypsinized, resuspended in RPMI-1640 growth media supplemented with 10% FCS, 100 u/ml of penicillin G and 100 ug/ml of streptomycin sulfate, and seeded at 2000 cells per well into 96 well microtiter plates. Cells were incubated overnight in a humidified atmosphere of 5% CO2 at 37° C. On Day 1, serial dilutions of compounds were prepared at 2× the finial assay concentration. One hundred microliters of 2× solution was added to test wells in duplicate and control wells received no test compound. The final drug concentration ranged from 0 to 10-20 um in a 5 point dose-response curve. Cells were incubated in the presence of test compounds in a humidified atmosphere of 5% CO2 at 37° C. for 72 hours. After 72 hours of compound exposure, 40 ul of Promega CellTiter 960 Aqueous One Solution was added to each well and absorbance at 490 n-M was measured using a multi-well plate reader. Percent inhibition of proliferation was calculated using the following formula: 100×(1−Absorbancetreated−Background/(Absorbancecontrol−Background)
Absorbancetreated=absorbance at 490 nm in test wells, cells with test compound
Absorbancecontrol=absorbance at 490 nm in control wells, cells with no test compound
Background=absorbance 490 nm in wells containing media and no cells
The concentration of test compound required to inhibit proliferation of 50% of the cells (IC50) was determined by linear regression analysis.
Representative compounds of the invention were tested in the above-described Colo205 human colon carcinoma cell line in vitro assay and found to inhibit human colon carcinoma cell proliferation, and are summarized as follows: […]
`O=C(O)c1cn(-c2ccc(CNC3CCC[C@@H]3O)cc2)c2c(Cl)c(N3CCN(c4ccccn4)CC3)c(F)cc2c1=O` (stereo in doubt) [Example 172, 8-chloro-6-fluoro-1{4-[(2-hydroxycyclopentylamino)-methyl]-phenyl}-4-oxo-7-(4-pyridin-2-yl-piperazine-1-yl)-1,4-dihydro-quinoline-3-carboxylic acid]: the pIC50 was over 6.30.

`O=C(O)c1cn(-c2ccc(CN3CCCC3)cc2)c2c(Cl)c(N3CCN(c4ccccn4)CC3)c(F)cc2c1=O` [Example 1, 8-chloro-6-fluoro-4-oxo-7-(4-pyridin-2-yl-piperazin-1-yl)-1-[4-(pyrrolidin-1-ylmethyl)phenyl]-1,4-dihydroquinoline-3-carboxylic acid]: the pIC50 is over 6.30.

Turning to `O=C(O)c1cn(-c2ccc(CN3CCCC3)cc2)c2c(Cl)c(N3CCN(c4ccc(F)cc4)CC3)c(F)cc2c1=O` [Example 2, 8-chloro-6-fluoro-7-[4-(4-fluorophenyl)-piperazin-1-yl]-4-oxo-1-[4-(pyrrolidin-1-ylmethyl)phenyl]-1,4-dihydroquinoline-3-carboxylic acid], the pIC50 is over 6.30.

As to `O=C(O)c1cn(-c2ccc(CN3CCCC3)cc2)c2c(Cl)c(N3CCN(c4ccc(Cl)cc4)CC3)c(F)cc2c1=O` [Example 3, 8-chloro-6-fluoro-7-[4-(4-chlorophenyl)-piperazin-1-yl]-4-oxo-1-[4-(pyrrolidin-1-ylmethyl)phenyl]-1,4-dihydroquinoline-3-carboxylic acid], the pIC50 was 5.70 to 6.30.

Turning to `N#Cc1ccccc1N1CCN(c2c(F)cc3c(=O)c(C(=O)O)cn(-c4ccc(CN5CCCC5)cc4)c3c2Cl)CC1` [Example 4, 8-chloro-6-fluoro-7-[4-(2-cyanophenyl)-piperazin-1-yl]-4-oxo-1-[4-(pyrrolidin-1-ylmethyl)phenyl]1,4-dihydroquinoline-3-carboxylic acid], the pIC50 was over 6.30.

In the case of `N#Cc1cc(C(F)(F)F)ccc1N1CCN(c2c(F)cc3c(=O)c(C(=O)O)cn(-c4ccc(CN5CCCC5)cc4)c3c2Cl)CC1` [Example 5, 8-chloro-7-{4-[2-cyano-4-(trifluoromethyl)-phenyl]piperazin-1-yl}-6-fluoro-4-oxo-1-[4 (pyrrolidin-1-ylmethyl)phenyl]-1,4-dihydroquinoline-3-carboxylic acid], the pIC50 is 5.70 to 6.30.

For the compound `O=C(O)c1cn(-c2ccc(CN3CCCC3)cc2)c2c(Cl)c(N3CCN(c4ncccn4)CC3)c(F)cc2c1=O` [Example 6, 8-chloro-6-fluoro-4-oxo-7-(4-pyrimidin-2-ylpiperazin-1-yl)-1-[4-(pyrrolidin-1-ylmethyl)phenyl]-1,4-dihydroquinoline-3-carboxylic acid], the pIC50 is over 6.30.

In the case of `N#Cc1cccnc1N1CCN(c2c(F)cc3c(=O)c(C(=O)O)cn(-c4ccc(CN5CCCC5)cc4)c3c2Cl)CC1` [Example 7, 8-chloro-7-[4-(3-cyanopyridin-2-yl)piperazin-1-yl]-6-fluoro-4-oxo-1-[4-(pyrrolidin-1-ylmethyl)phenyl]-1,4-dihydroquinoline-3-carboxylic acid], the pIC50 was over 6.30.

Regarding `O=C(O)c1cn(-c2ccc(CN3CCCC3)cc2)c2c(Cl)c(N3CCN(c4ccc(F)cc4F)CC3)c(F)cc2c1=O` [Example 8, 8-chloro-7-[4-(2,4-difluorophenyl)piperazin-1-yl]-6-fluoro-4-oxo-1-[4-(pyrrolidin-1-ylmethyl)phenyl]-1,4-dihydroquinoline-3-carboxylic acid], the pIC50 was 5.70 to 6.30.

For `NC(=O)c1cccnc1N1CCN(c2c(F)cc3c(=O)c(C(=O)O)cn(-c4ccc(CN5CCCC5)cc4)c3c2Cl)CC1` [Example 9, 7-{4-[3-(aminocarbonyl)pyridin-2-yl]piperazin-1-yl}-8-chloro-6-fluoro-4-oxo-1-[4-(pyrrolidin-1-ylmethyl)phenyl]-1,4-dihydroquinoline-3-carboxylic acid], the pIC50 was 5.70 to 6.30.

`NC(=O)c1ccccc1N1CCN(c2c(F)cc3c(=O)c(C(=O)O)cn(-c4ccc(CN5CCCC5)cc4)c3c2Cl)CC1` [Example 10, 7-{4-[2-(aminocarbonyl)phenyl]piperazin-1-yl}-8-chloro-6-fluoro-4-oxo-1-[4-(pyrrolidin-1-ylmethyl)phenyl]-1,4-dihydroquinoline-3-carboxylic acid]: the pIC50 was 4.70 to 5.70.

With `Cc1ccccc1N1CCN(c2c(F)cc3c(=O)c(C(=O)O)cn(-c4ccc(CN5CCCC5)cc4)c3c2Cl)CC1` [Example 11, 8-chloro-6-fluoro-7-[4-(2-methylphenyl)-piperazin-1-yl]-4-oxo-1-[4-(pyrrolidin-1-ylmethyl)phenyl]-1,4-dihydroquinoline-3-carboxylic acid], the pIC50 was 5.70 to 6.30.

`CCOc1ccc(N2CCN(c3c(F)cc4c(=O)c(C(=O)O)cn(-c5ccc(CN6CCCC6)cc5)c4c3Cl)CC2)cc1` [Example 12, 8-chloro-7-[4-(4-ethoxyphenyl)piperazin-1-yl]-6-fluoro-4-oxo-1-[4-(pyrrolidin-1-ylmethyl)phenyl]-1,4-dihydroquinoline-3-carboxylic acid]: the pIC50 was 4.70 to 5.70.

In the case of `Cc1cccc(N2CCN(c3c(F)cc4c(=O)c(C(=O)O)cn(-c5ccc(CN6CCCC6)cc5)c4c3Cl)CC2)n1` [Example 13, 8-chloro-6-fluoro-7-[4-(6-methylpyridin-2-yl)-piperazin-1-yl]-4-oxo-1-[4-(pyrrolidin-1-ylmethyl)phenyl]-1,4-dihydroquinoline-3-carboxylic acid], the pIC50 is over 6.30.

For `O=C(O)c1cn(-c2ccc(CN3CCCC3)cc2)c2c(Cl)c(N3CCN(c4ncccc4C(F)(F)F)CC3)c(F)cc2c1=O` [Example 14, 8-chloro-6-fluoro-4-oxo-1-[4-(pyrrolidin-1-yl-methyl)phenyl]-7-{4-[3-(trifluoromethyl)pyridin-2-yl]piperazin-1-yl}-1,4-dihydroquinoline-3-carboxylic acid], the pIC50 was 5.70 to 6.30.

Consider `CCOc1ccccc1N1CCN(c2c(F)cc3c(=O)c(C(=O)O)cn(-c4ccc(CN5CCCC5)cc4)c3c2Cl)CC1` [Example 16, 8-chloro-7-[4-(2-ethoxyphenyl)piperazin-1-yl]-6-fluoro-4-oxo-1-[4-(pyrrolidin-1-ylmethyl)phenyl]-1,4-dihydroquinoline-3-carboxylic acid], for which the pIC50 is 5.70 to 6.30.

As to `CC1CCCN1Cc1ccc(-n2cc(C(=O)O)c(=O)c3cc(F)c(N4CCN(c5ccccn5)CC4)c(Cl)c32)cc1` (stereo not shown) [Example 17, 8-chloro-6-fluoro-1-{4-[(2-methylpyrrolidin-1-yl)methyl]phenyl}-4-oxo-7-(4-pyridin-2-ylpiperazin-1-yl)-1,4-dihydroquinoline-3-carboxylic acid], the pIC50 was over 6.30.

Consider `CC1CCCN1Cc1ccc(-n2cc(C(=O)O)c(=O)c3cc(F)c(N4CCN(c5ccc(F)cc5)CC4)c(Cl)c32)cc1` (stereo not shown) [Example 18, 8-chloro-6-fluoro-7-[4-(4-fluorophenyl)-piperazin-1-yl]-1-{4-[(2-methylpyrrolidin-1-yl)methyl]phenyl}-4-oxo-1,4-dihydroquinoline-3-carboxylic acid], for which the pIC50 was over 6.30.

Regarding `CC1CCC(C)N1Cc1ccc(-n2cc(C(=O)O)c(=O)c3cc(F)c(N4CCN(c5ccccn5)CC4)c(Cl)c32)cc1` (stereo not shown) [Example 19, 8-chloro-1-{4-[(2,5-dimethylpyrrolidin-1-yl)methyl]phenyl}-6-fluoro-4-oxo-7-(4-pyridin-2-ylpiperazin-1-yl)-1,4-dihydroquinoline-3-carboxylic acid], the pIC50 is over 6.30.

For the compound `CC1C=CC(C)N1Cc1ccc(-n2cc(C(=O)O)c(=O)c3cc(F)c(N4CCN(c5ncccn5)CC4)c(Cl)c32)cc1` (stereo not shown) [Example 20, 8-chloro-1-{4-[(2,5-dimethyl-2,5-dihydro-1H-pyrrol-1-yl)methyl]phenyl}-6-fluoro-4-oxo-7-(4-pyrimidin-2-ylpiperazin-1-yl)-1,4-dihydroquinoline-3-carboxylic acid], the pIC50 is 4.70 to 5.70.

Turning to `COC[C@H]1CCCN1Cc1ccc(-n2cc(C(=O)O)c(=O)c3cc(F)c(N4CCN(c5ccccn5)CC4)c(Cl)c32)cc1` [Example 21, 8-chloro-6-fluoro-1-(4-{[(2R)-2-(methoxy-methyl)pyrrolidin-1-yl]methyl}phenyl)-4-oxo-7-(4-pyridin-2-ylpiperazin-1-yl)-1,4-dihydroquinoline-3-carboxylic acid], the pIC50 was over 6.30.

For `COC[C@H]1CCCN1Cc1ccc(-n2cc(C(=O)O)c(=O)c3cc(F)c(N4CCN(c5ncccn5)CC4)c(Cl)c32)cc1` [Example 22, 8-chloro-6-fluoro-1-(4-{[(2R)-2-(methoxy-methyl)pyrrolidin-1-yl]methyl}phenyl)-4-oxo-7-(4-pyrimidin-2-ylpiperazin-1-yl)-1,4-dihydroquinoline-3-carboxylic acid], the pIC50 is 5.70 to 6.30.

(Values after patent US20070213339A1 (Bayer Pharmaceuticals Corporation, priority 2004, published 2007).)
